The supplement of paper PMC10307832

Assays:
Assay in all cases: relative viability (nuclei count vs DMSO), 5 days (fraction); higher = more cells survive
A-427 = test system: A-427
Procedure, shortened: (§1)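 After 5 days of treatment, lung cancer cells in 1536-well plates were fixed and stained in a single step (final 0.05% Triton X-100, 1% formaldehyde, 1 ug/ml Hoechst) and their nuclei counted on 4× images. Treatment had been applied by pin tool the day after seeding as one drug alone or as a fixed anchor-drug dose with five library-drug doses (not always all listed) in √10 steps. Relative viability is the nuclei count of treated wells divided by that of vehicle wells, and values are medians of duplicate plates.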

ABC-1 = test system: ABC-1
Procedure, shortened: as §1

EMC-BAC-2 = test system: EMC-BAC-2
Procedure, shortened: as §1

HARA = test system: HARA
Procedure, shortened: as §1

HOP-62 = test system: HOP-62
Procedure, shortened: as §1

LK-2 = test system: LK-2
Procedure, shortened: as §1

LXF-289 = test system: LXF-289
Procedure, shortened: as §1

NCI-H1792 = test system: NCI-H1792
Procedure, shortened: as §1

NCI-H1944 = test system: NCI-H1944
Procedure, shortened: as §1

NCI-H1993 = test system: NCI-H1993
Procedure, shortened: as §1

NCI-H2009 = test system: NCI-H2009
Procedure, shortened: as §1

NCI-H2170 = test system: NCI-H2170
Procedure, shortened: as §1

NCI-H2228 = test system: NCI-H2228
Procedure, shortened: as §1

NCI-H3122 = test system: NCI-H3122
Procedure, shortened: as §1

NCI-H322M = test system: NCI-H322M
Procedure, shortened: as §1

NCI-H522 = test system: NCI-H522
Procedure, shortened: as §1

NCI-H596 = test system: NCI-H596
Procedure, shortened: as §1

NCI-H727 = test system: NCI-H727
Procedure, shortened: as §1

PC-3 [JPC-3] = test system: PC-3 [JPC-3]
Procedure, shortened: as §1

SK-MES-1 = test system: SK-MES-1
Procedure, shortened: as §1

SW 1573 = test system: SW 1573
Procedure, shortened: as §1

SW 900 = test system: SW 900
Procedure, shortened: as §1

Nc1ccn([C@@H]2O[C@H](CO)[C@@H](O)[C@@H]2O)c(=O)n1 [Cytarabine] + CCNC(=O)c1noc(-c2cc(C(C)C)c(O)cc2O)c1-c1ccc(CN2CCOCC2)cc1 [Luminespib] (partner 0.01 µM)
relative viability (A-427; first compound 0.005 µM): 0.708 | relative viability (A-427; first compound 0.01581 µM): 0.425 | relative viability (A-427; first compound 0.05 µM): 0.238 | relative viability (A-427; first compound 0.1581 µM): 0.186 | relative viability (A-427; first compound 0.5 µM): 0.161 | relative viability (ABC-1; first compound 0.005 µM): 0.732 | relative viability (ABC-1; first compound 0.01581 µM): 0.624 | relative viability (ABC-1; first compound 0.05 µM): 0.712 | relative viability (ABC-1; first compound 0.1581 µM): 0.381 | relative viability (ABC-1; first compound 0.5 µM): 0.281 | relative viability (EMC-BAC-2; first compound 0.005 µM): 0.885 | relative viability (EMC-BAC-2; first compound 0.01581 µM): 0.742 | relative viability (EMC-BAC-2; first compound 0.05 µM): 0.346 | relative viability (EMC-BAC-2; first compound 0.1581 µM): 0.259 | relative viability (EMC-BAC-2; first compound 0.5 µM): 0.244 | relative viability (HARA; first compound 0.005 µM): 0.898 | relative viability (HARA; first compound 0.01581 µM): 0.303 | relative viability (HARA; first compound 0.05 µM): 0.27 | relative viability (HARA; first compound 0.1581 µM): 0.1 | relative viability (HARA; first compound 0.5 µM): 0.0906 | relative viability (HOP-62; first compound 0.005 µM): 0.679 | relative viability (HOP-62; first compound 0.01581 µM): 0.49 | relative viability (HOP-62; first compound 0.05 µM): 0.285 | relative viability (HOP-62; first compound 0.1581 µM): 0.135 | relative viability (HOP-62; first compound 0.5 µM): 0.135 | relative viability (LK-2; first compound 0.005 µM): 0.193 | relative viability (LK-2; first compound 0.01581 µM): 0.187 | relative viability (LK-2; first compound 0.05 µM): 0.197 | relative viability (LK-2; first compound 0.1581 µM): 0.155 | relative viability (LK-2; first compound 0.5 µM): 0.176 | relative viability (LXF-289; first compound 0.005 µM): 0.673 | relative viability (LXF-289; first compound 0.01581 µM): 0.665 | relative viability (LXF-289; first compound 0.05 µM): 0.43 | relative viability (LXF-289; first compound 0.1581 µM): 0.266 | relative viability (LXF-289; first compound 0.5 µM): 0.149 | relative viability (NCI-H1792; first compound 0.01581 µM): 0.431 | relative viability (NCI-H1792; first compound 0.05 µM): 0.366 | relative viability (NCI-H1792; first compound 0.1581 µM): 0.313 | relative viability (NCI-H1792; first compound 0.5 µM): 0.271 | relative viability (NCI-H1944; first compound 0.005 µM): 0.619 | relative viability (NCI-H1944; first compound 0.01581 µM): 0.343 | relative viability (NCI-H1944; first compound 0.05 µM): 0.264 | relative viability (NCI-H1944; first compound 0.1581 µM): 0.185 | relative viability (NCI-H1944; first compound 0.5 µM): 0.134 | relative viability (NCI-H1993; first compound 0.005 µM): 0.964 | relative viability (NCI-H1993; first compound 0.01581 µM): 0.706 | relative viability (NCI-H1993; first compound 0.05 µM): 0.695 | relative viability (NCI-H1993; first compound 0.1581 µM): 0.512 | relative viability (NCI-H1993; first compound 0.5 µM): 0.525 | relative viability (NCI-H2009; first compound 0.005 µM): 0.995 | relative viability (NCI-H2009; first compound 0.01581 µM): 1.06 | relative viability (NCI-H2009; first compound 0.05 µM): 1.04 | relative viability (NCI-H2009; first compound 0.1581 µM): 0.775 | relative viability (NCI-H2009; first compound 0.5 µM): 0.239 | relative viability (NCI-H2170; first compound 0.005 µM): 0.761 | relative viability (NCI-H2170; first compound 0.01581 µM): 0.431 | relative viability (NCI-H2170; first compound 0.05 µM): 0.248 | relative viability (NCI-H2170; first compound 0.1581 µM): 0.23 | relative viability (NCI-H2170; first compound 0.5 µM): 0.158 | relative viability (NCI-H2228; first compound 0.005 µM): 0.141 | relative viability (NCI-H2228; first compound 0.01581 µM): 0.121 | relative viability (NCI-H2228; first compound 0.05 µM): 0.141 | relative viability (NCI-H2228; first compound 0.1581 µM): 0.116 | relative viability (NCI-H2228; first compound 0.5 µM): 0.12 | relative viability (NCI-H3122; first compound 0.005 µM): 0.0849 | relative viability (NCI-H3122; first compound 0.01581 µM): 0.0661 | relative viability (NCI-H3122; first compound 0.05 µM): 0.0881 | relative viability (NCI-H3122; first compound 0.1581 µM): 0.0776 | relative viability (NCI-H3122; first compound 0.5 µM): 0.0754 | relative viability (NCI-H322M; first compound 0.005 µM): 0.812 | relative viability (NCI-H322M; first compound 0.01581 µM): 0.685 | relative viability (NCI-H322M; first compound 0.05 µM): 0.514 | relative viability (NCI-H322M; first compound 0.1581 µM): 0.387 | relative viability (NCI-H322M; first compound 0.5 µM): 0.351 | relative viability (NCI-H522; first compound 0.005 µM): 1.09 | relative viability (NCI-H522; first compound 0.01581 µM): 0.953 | relative viability (NCI-H522; first compound 0.05 µM): 0.968 | relative viability (NCI-H522; first compound 0.1581 µM): 0.422 | relative viability (NCI-H522; first compound 0.5 µM): 0.438 | relative viability (NCI-H596; first compound 0.005 µM): 0.933 | relative viability (NCI-H596; first compound 0.01581 µM): 0.841 | relative viability (NCI-H596; first compound 0.05 µM): 0.685 | relative viability (NCI-H596; first compound 0.1581 µM): 0.548 | relative viability (NCI-H596; first compound 0.5 µM): 0.388 | relative viability (NCI-H727; first compound 0.005 µM): 0.22 | relative viability (NCI-H727; first compound 0.01581 µM): 0.527 | relative viability (NCI-H727; first compound 0.05 µM): 0.475 | relative viability (NCI-H727; first compound 0.1581 µM): 0.341 | relative viability (NCI-H727; first compound 0.5 µM): 0.309 | relative viability (PC-3 [JPC-3]; first compound 0.005 µM): 0.754 | relative viability (PC-3 [JPC-3]; first compound 0.01581 µM): 0.73 | relative viability (PC-3 [JPC-3]; first compound 0.05 µM): 0.782 | relative viability (PC-3 [JPC-3]; first compound 0.1581 µM): 0.453 | relative viability (PC-3 [JPC-3]; first compound 0.5 µM): 0.551 | relative viability (SK-MES-1; first compound 0.005 µM): 0.934 | relative viability (SK-MES-1; first compound 0.01581 µM): 0.565 | relative viability (SK-MES-1; first compound 0.05 µM): 0.319 | relative viability (SK-MES-1; first compound 0.1581 µM): 0.226 | relative viability (SK-MES-1; first compound 0.5 µM): 0.232 | relative viability (SW 1573; first compound 0.005 µM): 0.375 | relative viability (SW 1573; first compound 0.01581 µM): 0.228 | relative viability (SW 1573; first compound 0.05 µM): 0.285 | relative viability (SW 1573; first compound 0.1581 µM): 0.164 | relative viability (SW 1573; first compound 0.5 µM): 0.0905 | relative viability (SW 900; first compound 0.005 µM): 0.16 | relative viability (SW 900; first compound 0.01581 µM): 0.184 | relative viability (SW 900; first compound 0.05 µM): 0.186 | relative viability (SW 900; first compound 0.1581 µM): 0.142 | relative viability (SW 900; first compound 0.5 µM): 0.137
